Measured values as given in ChEMBL document CHEMBL1128430, “1,1-Bisphosphonate squalene synthase inhibitors: interplay between the isoprenoid subunit and the diphosphate surrogate” (J Med Chem, 1995).
Activity calls are given as the source filed them. The rule behind the calls is not given here.

biological target: T1, Squalene synthase (Rattus norvegicus) (UniProt Q02769); experiment: Effective dose to inhibit rat liver microsomal Squalene Synthase was determined by intravenous administration; conditions: not given
T1 sequence (whole entry): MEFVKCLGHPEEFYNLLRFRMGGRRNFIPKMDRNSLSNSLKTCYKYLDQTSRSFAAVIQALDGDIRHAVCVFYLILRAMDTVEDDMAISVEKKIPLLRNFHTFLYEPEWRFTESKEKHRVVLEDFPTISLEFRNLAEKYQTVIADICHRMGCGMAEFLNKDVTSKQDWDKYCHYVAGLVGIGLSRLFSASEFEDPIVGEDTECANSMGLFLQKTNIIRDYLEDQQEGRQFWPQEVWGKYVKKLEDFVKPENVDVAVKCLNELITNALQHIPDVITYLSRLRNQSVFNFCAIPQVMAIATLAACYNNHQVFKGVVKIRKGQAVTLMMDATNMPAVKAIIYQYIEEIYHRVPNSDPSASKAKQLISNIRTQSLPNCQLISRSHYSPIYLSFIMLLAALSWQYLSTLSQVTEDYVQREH

ED50 [mg/kg] | Structure (SMILES)
0.13 | CC(C)=CCC/C(C)=C/CC/C(C)=C/CCCCCCC(P(=O)(O)O)P(=O)(O)O
0.05 | CC(C)=CCC/C(C)=C/CCCCCCCC(P(=O)(O)O)P(=O)(O)O
0.04 | CC(C)=CCC/C(C)=C/CCCCCC(P(=O)(O)O)P(=O)(O)O

biological target: T1, Squalene synthase (Rattus norvegicus); experiment: Effective dose to inhibit rat liver microsomal Squalene Synthase was determined by peroral administration at 15 mg/kg dose; format: organism-based; design: dose 15 mg/kg; conditions: not given

inhibition [%] | Structure (SMILES)
26 | CC(C)=CCC/C(C)=C/CC/C(C)=C/CCCCCCC(P(=O)(O)O)P(=O)(O)O

biological target: T2, Squalene synthase (Rattus norvegicus, UniProt Q02769); experiment: Inhibition rat liver microsomal squalene synthase; conditions: not given
T2 sequence (Q02769 whole entry): T1 sequence (whole entry)

IC50 [nM] | Structure (SMILES)
12.9 | CC(C)=CCC/C(C)=C/CC/C(C)=C/CCCC(P(C)(=O)O)P(=O)(O)O (configuration not stated)
81 | CC(C)=CCC/C(C)=C/CCCC(P(C)(=O)O)P(=O)(O)O (configuration not stated)
106 | CC(C)=CCC/C(C)=C/CC/C(C)=C/CC(P(C)(=O)O)P(=O)(O)O (configuration not stated)
605 | CC(C)=CCC/C(C)=C/CCCCC(P(C)(=O)O)P(=O)(O)O (configuration not stated)
6.5 | CC(C)=CCC/C(C)=C/CC/C(C)=C/CCCCC(P(C)(=O)O)P(=O)(O)O (configuration not stated)
11.8 | CC(C)=CCC/C(C)=C/CC/C(C)=C/CCCCCCC(P(=O)(O)O)P(=O)(O)O
2200 | O=C(O)C(CCCc1ccc(-c2ccccc2)cc1)P(=O)(O)O (configuration not stated)
4.2 | CC(C)=CCC/C(C)=C/CCCCCCCC(P(=O)(O)O)P(=O)(O)O
2.5 | CC(C)=CCC/C(C)=C/CCCCCC(P(=O)(O)O)P(=O)(O)O
17.6 | CC(C)=CCC/C(C)=C/CCCCCCC(P(=O)(O)O)P(=O)(O)O
32.4 | CC(C)=CCC/C(C)=C/CC/C(C)=C/CC(P(=O)(O)O)P(=O)(O)O
30.7 | CC(C)=CCC/C(C)=C/CCCCCC(P(C)(=O)O)P(=O)(O)O (configuration not stated)
14.8 | COCP(=O)(O)C(CCCc1ccc(-c2ccccc2)cc1)P(=O)(O)O (configuration not stated)
8.7 | CC(C)=CCC/C(C)=C/CCCCCCCC(P(C)(=O)O)P(=O)(O)O (configuration not stated)
490 | CP(=O)(O)C(CCCc1ccc(-c2ccccc2)cc1)P(=O)(O)O (configuration not stated)
77.7 | CC(C)=CCC/C(C)=C/CCC(P(=O)(O)O)P(=O)(O)O
1650 | CC(C)=CCC/C(C)=C/CCCC(C(=O)O)P(=O)(O)O (configuration not stated)
880 | CC(C)=CCC/C(C)=C/CC/C(C)=C/CCCC(C(=O)O)P(=O)(O)O (configuration not stated)
4.7 | CC(C)=CCC/C(C)=C/CC/C(C)=C/CCCC(P(=O)(O)O)P(=O)(O)CO (configuration not stated)
13.1 | COCP(=O)(O)C(CCC/C=C(\C)CCC=C(C)C)P(=O)(O)O (configuration not stated)
374 | CC(C)=CCC/C(C)=C/CCCCCCC(P(C)(=O)O)P(=O)(O)O (configuration not stated)
38.7 | CC(C)=CCC/C(C)=C/CCCC(P(=O)(O)O)P(=O)(O)CO (configuration not stated)
6600 | CC(C)=CCCCC(P(=O)(O)O)P(=O)(O)O
23.9 | O=P(O)(O)C(CCCc1ccc(-c2ccccc2)cc1)P(=O)(O)CO (configuration not stated)
8600 | CC(C)=CCC/C(C)=C/CC(P(C)(=O)O)P(=O)(O)O (configuration not stated)
6.5 | COCP(=O)(O)C(CCC/C=C(\C)CC/C=C(\C)CCC=C(C)C)P(=O)(O)O (configuration not stated)
35.5 | CC(C)=CCC/C(C)=C/CC(P(=O)(O)O)P(=O)(O)O
2.6 | CC(C)=CCC/C(C)=C/CCCCC(P(=O)(O)O)P(=O)(O)O

Structure (SMILES) | IC50 [nM]
CC(C)=CCC/C(C)=C/CCCC([PH](=O)O)P(=O)(O)O (configuration not stated) | 4

biological target: T1, Squalene synthase (Rattus norvegicus); experiment: Effective dose to inhibit rat liver microsomal Squalene Synthase was determined by peroral administration at a dose of 30 mg/kg; In active; format: organism-based; design: dose 30 mg/kg; conditions: not given

ED50 | Structure (SMILES)
inactive | CC(C)=CCC/C(C)=C/CCCCCCCC(P(=O)(O)O)P(=O)(O)O

biological target: T1, Squalene synthase (Rattus norvegicus); conditions: 30 mg/kg

inhibition [%] | Structure (SMILES)
25 | CC(C)=CCC/C(C)=C/CCCCCCC(P(=O)(O)O)P(=O)(O)O

biological target: T1, Squalene synthase (Rattus norvegicus); experiment: Effective dose to inhibit rat liver microsomal Squalene Synthase was determined by peroral administration; conditions: not given

ED50 [mg/kg] | Structure (SMILES)
1.1 | CC(C)=CCC/C(C)=C/CCCCCC(P(=O)(O)O)P(=O)(O)O

biological target: T1, Squalene synthase (Rattus norvegicus); experiment: Effective dose to inhibit rat liver microsomal Squalene synthase was determined by peroral administration at a dose of 15 mg/kg; inactive; format: organism-based; design: dose 15 mg/kg; conditions: not given

ED50 | Structure (SMILES)
inactive | CC(C)=CCC/C(C)=C/CC(P(=O)(O)O)P(=O)(O)O
